# Assay results reported in patent publication US20230014907A1, “INHIBITORS OF APOL1 AND METHODS OF USING SAME” (Vertex Pharmaceuticals Incorporated, priority 2020, published 2023).
# Molecular target: T1, G1 APOL1 (Homo sapiens, UniProt O14791, I384M/S342G)
# T1 construct: expressed in transfected cells
# T1 sequence (O14791 28-398 S342G/I384M): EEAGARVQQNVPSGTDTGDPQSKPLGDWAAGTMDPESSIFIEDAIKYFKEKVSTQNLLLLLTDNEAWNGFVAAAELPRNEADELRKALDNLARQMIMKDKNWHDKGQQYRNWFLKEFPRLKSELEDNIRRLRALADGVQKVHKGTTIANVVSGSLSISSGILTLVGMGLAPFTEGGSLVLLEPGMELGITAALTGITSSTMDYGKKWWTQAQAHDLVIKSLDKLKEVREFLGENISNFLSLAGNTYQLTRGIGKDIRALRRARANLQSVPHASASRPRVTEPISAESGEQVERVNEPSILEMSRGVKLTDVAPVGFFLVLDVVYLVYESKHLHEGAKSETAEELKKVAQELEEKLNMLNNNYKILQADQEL
# Assay: Acute APOL1 Thallium Assay with Inducible Stable Clones of HEK 293 Cells
# Type: cell-based
# Details: HEK 293 inducible stable clones, G1 APOL1; read-out: Thallium Assay (IC50)
# Source text: Acute APOL1 Thallium Assay with Inducible Stable Clones of HEK 293 Cells
# Apolipoprotein L1 (APOL1) proteins form potassium-permeable cation pores in the plasma membrane. APOL1 risk variants (G1 and G2) induce greater potassium flux than G0 in HEK293 cells. This assay exploits the permeability of thallium (Tl+) through ligand-gated potassium channels. The dye produces a bright fluorescent signal upon binding to Tl+ conducted through potassium channels. The intensity of the Tl+ signal is proportional to the number of potassium channels in the open state. Therefore, it provides a functional indication of the potassium channel activities. During the initial dye-loading step, the Tl+ indicator dye as an acetoxymethyl (AM) ester enters the cells through passive diffusion. Cytoplasm esterases cleave the AM ester and relieve its active thallium-sensitive form. The cells are then stimulated with Tl+. The increase of fluorescence in the assay represents the influx of Tl+ into the cell specifically through the potassium channel (i.e. through APOL1 pores), providing a functional measurement of potassium channel/pore activity. The Thallium assay is conducted with cells expressing G1 APOL1.
# APOL1 Cell Line (HEK T-Rex Stable Inducible Cell Line) • HEK T-Rex System • Tetracycline (Tet) inducible mammalian expression system. • Stably express the Tet repressor to regulate transcription. • Expression under the full-length CMV promoter. • APOL1 stable inducible cell line Clone used: G1 DC3.25
# Tissue Culture Media • Cell Culture Medium • DMEM+10% FBS+P/S+5 μg/mL blasticidin+1 μg/mL puromycin. • 500 mL DMEM+55 mL FBS+5 mL P/S+280 μL blasticidin S HCl (10 mg/mL)+56 μL puromycin (10 mg/mL). • Cell Assay Medium • DMEM with 2% FBS+penicillin/streptomycin.
# Instruments and Equipment • Nuaire cell culture hood, Cat. No. 540-600 • 37° C./5% CO2 incubator link to robotic arm, Liconic: STX110 • Molecular Devices FLIPR^Tetra High throughput cellular screening system, Cat. No. FT0324, Molecular Devices • ThermoFisher MultiDrop 384, Cat. No. 5840300 • Biotek Microfill, Cat. No. ASF1000A-4145 • BioRad TC10 cell counter, Cat. No. 145-0010
# Cells Scaled Up from Frozen Vials • APOL1 G1 3.25 (HEK293 T-Rex) frozen vials: 5 million cells per vial • Step 1, Day 1: Defrost frozen vial into T-225. • Step 2, Day 5: (when 85% confluent): Split one T-225 at 3×10^6 cells per flask. • Step 3, Day 8: Splits cells to set up for the assay plates as described below.
# T-Rex APOL1 HEK cells are split twice per week to keep the confluence state below 85% of the culture flask surface area. Cells can be kept until passage 25. • Cell Culture Medium • DMEM high glucose+10% FBS, +P/S, +5 μg/mL blasticidin, +1 μg/mL puromycin. • 500 mL DMEM, +55 mL FBS, +5 mL P/S, +280 μL blasticidin 10 mg/mL, +56 μL Puromycin 10 mg/mL. • Assay Media • Opti-MEM reduced serum medium from Invitrogen.
# Preparation of Cell Assay Plates • Culture medium is removed from the x cm^2 T-flask by aspiration. • The cell monolayer is rinsed with PBS 1× at room temperature. PBS is removed by aspiration. • Cells are trypsinized using Trypsin. • The flasks are incubated at room temperature for 2-3 minutes. • Complete DMEM medium is then added. Cell suspension is then transferred to a 50 mL Falcon polypropylene tube. • Cells are then counted using a BioRad TC10 cell counter and the required amount of cells are centrifuged at 1200 RPM for 5 minutes. Required amount is 1.3×10^6 cells/mL APOL1 T-Rex HEK cells. • The pellet is suspended in the assay medium. • Using the MultiDrop, add 20 μL to each well (corresponds to 26000 cells total per well) of a 384-well black, transparent, flat bottom Poly-D coated plate. • Tetracycline as prepared in the following section is added to the cells before plating to induce APOL1 expression. • Plates are left at room temperature for 20 to 30 minutes before incubation at 37° C. and 5% CO2. […]
row,SMILES,IC50 [nM]
1,CC(C)(C)[C@H](CO)NC(=O)NCCc1c(-c2ccc(F)cc2)[nH]c2c(F)cc(F)cc12 [Compound 265],> 1000
2,O=C1N[C@H](C(=O)NCCc2c(-c3ccc(F)cc3)[nH]c3c(F)cc(F)cc23)CCO1 [Compound 323],> 1000
3,O=C(CCCc1c(-c2ccc(F)cc2)[nH]c2c(F)cc(F)cc12)N[C@H]1CCNC1=O [Compound 249],> 1000
4,O=C(CCc1c(-c2ccc(F)cc2)[nH]c2c(F)cc(F)cc12)N[C@@H](CO)C(F)F [Compound 132],< 250
5,CC(CC(N)=O)N(C)C(=O)NCCc1c(-c2ccc(F)cc2)[nH]c2c(F)cc(F)cc12 (racemic) [Compound 290],> 1000
6,"O=C(CCc1c(-c2ccc(F)cc2)[nH]c2c(F)cc(Cl)cc12)NC1(CO)CCC1 [Compound 194, 3-[5-chloro-7-fluoro-2-(4-fluorophenyl)-1H-indol-3-yl]-N-[1-(hydroxymethyl)cyclobutyl]propanamide]",250 to 1000
7,N#CC(NC(=O)CCc1c(-c2ccc(F)cc2)[nH]c2c(F)cc(F)cc12)C(N)=O (stereo not shown) [Compound 127],250 to 1000
8,CN(CCO)C(=O)NCCc1c(-c2ccc(F)cc2)[nH]c2c(F)cc(F)cc12 [Compound 302],> 1000
9,Cc1cc(F)c2[nH]c(-c3ccc(F)cc3)c(CCC(=O)NCC(N)=O)c2c1 [Compound 223],> 1000
10,"O=C(CCc1c(-c2ccccc2)[nH]c2ccc(F)cc12)N[C@@H](CO)C(F)F [Compound 235, N-[(1S)-2,2-difluoro-1-(hydroxymethyl)ethyl]-3-(5-fluoro-2-phenyl-1H-indol-3-yl)propanamide]",< 250
11,O=C(CCc1c(-c2ccc(F)cc2)[nH]c2c(F)cc(Cl)cc12)NCCO [Compound 199],250 to 1000
12,Cc1cc(F)c2[nH]c(-c3ccc(F)cc3)c(CCC(=O)N[C@H](CO)C(F)(F)F)c2c1 [Compound 224],> 1000
13,O=C(CCc1c(-c2ccc(F)cc2)[nH]c2c(F)cc(Cl)cc12)NCCCO [Compound 209],> 1000
14,CC(C)[C@@H](CO)NC(=O)NCCc1c(-c2ccc(F)cc2)[nH]c2c(F)cc(F)cc12 [Compound 269],> 1000
15,O=C1CC[C@@H](C(=O)NCCc2c(-c3ccc(F)cc3)[nH]c3c(F)cc(F)cc23)N1 [Compound 338],> 1000
16,O=C(NCCc1c(-c2ccc(F)cc2)[nH]c2c(F)cc(F)cc12)NCC1(CO)CC1 [Compound 276],> 1000
17,"O=C(CCc1c(-c2ccc(F)cc2)[nH]c2c(F)cc(F)cc12)NC1=CCNC1=O [Compound 94, 3-[5,7-difluoro-2-(4-fluorophenyl)-1H-indol-3-yl]-N-(5-oxo-1,2-dihydropyrrol-4-yl)propanamide]",> 1000
18,O=C(CCCc1c(-c2ccc(F)cc2)[nH]c2c(F)cc(F)cc12)NCC1CNC(=O)C1 (stereo not shown) [Compound 252],> 1000
19,O=C(CCc1c(-c2ccc(F)cc2)[nH]c2c(F)cc(Cl)cc12)N[C@@H](CO)C(F)(F)F [Compound 207],< 250
20,"CC(C)(C)OC(=O)NC(CC(N)=O)C(=O)NCCc1c(-c2ccc(F)cc2)[nH]c2c(F)cc(F)cc12 (stereo not shown) [Compound 304, tert-butyl N-[3-amino-1-[2-[5,7-difluoro-2-(4-fluorophenyl)-1H-indol-3-yl]ethylcarbamoyl]-3-oxo-propyl]carbamate]",250 to 1000

# Now from value to compound:
row,IC50 [nM],SMILES
1,< 250,O=C(NC(CO)CO)OCCc1c(-c2ccc(F)cc2)[nH]c2c(F)cc(F)cc12 [Compound 437]
2,> 1000,"CNCCc1c(-c2ccc(F)cc2)[nH]c2c(F)cc(F)cc12 [Compound 428, 2-[5,7-difluoro-2-(4-fluorophenyl)-1H-indol-3-yl]-N-methyl-ethanamine]"
3,250 to 1000,CC(C)(CF)C(=O)NCCc1c(-c2ccc(F)cc2)[nH]c2c(F)cc(F)cc12 [Compound 405]
4,> 1000,Cc1ccc(C(=O)NCCc2c(-c3ccc(F)cc3)[nH]c3c(F)cc(F)cc23)o1 [Compound 393]
5,250 to 1000,COCCC(=O)NCCc1c(-c2ccc(F)cc2)[nH]c2c(F)cc(F)cc12 [Compound 412]
6,250 to 1000,O=C(NC1CC(O)C1)OCCc1c(-c2ccc(F)cc2)[nH]c2c(F)cc(F)cc12 (stereo not shown) [Compound 466]
7,< 250,C[C@H](CO)NC(=O)OCCc1c(-c2ccc(F)cc2)[nH]c2c(F)cc(F)cc12 [Compound 445]
8,> 1000,O=C(NCC1(O)CCC1)OCCc1c(-c2ccc(F)cc2)[nH]c2c(F)cc(F)cc12 [Compound 486]
9,> 1000,CC(C)(O)C(=O)NCCc1c(-c2ccc(F)cc2)[nH]c2c(F)cc(F)cc12 [Compound 355]
10,> 1000,O=C(NCc1ccco1)OCCc1c(-c2ccc(F)cc2)[nH]c2c(F)cc(F)cc12 [Compound 481]
11,> 1000,O=C(Cc1cnccn1)NCCc1c(-c2ccc(F)cc2)[nH]c2c(F)cc(F)cc12 [Compound 381]
12,> 1000,O=C(NCCc1c(-c2ccc(F)cc2)[nH]c2c(F)cc(F)cc12)c1cccnn1 [Compound 396]
13,< 250,NC(=O)CNC(=O)OCCc1c(-c2ccc(F)cc2)[nH]c2c(F)cc(F)cc12 [Compound 452]
14,250 to 1000,CC(C)(C#N)C(=O)NCCc1c(-c2ccc(F)cc2)[nH]c2c(F)cc(F)cc12 [Compound 411]
15,250 to 1000,O=C(NC1CCOC1)OCCc1c(-c2ccc(F)cc2)[nH]c2c(F)cc(F)cc12 (stereo not shown) [Compound 463]
16,> 1000,CC(O)CS(=O)(=O)NCCc1c(-c2ccc(F)cc2)[nH]c2c(F)cc(F)cc12 (stereo not shown) [Compound 421]
17,< 250,C[C@@H](O)CNC(=O)OCCc1c(-c2ccc(F)cc2)[nH]c2c(F)cc(F)cc12 [Compound 450]
18,> 1000,"O=C(Cc1c(-c2ccc(F)cc2)[nH]c2ccccc12)NCC(O)CO (stereo not shown) [Compound 516, N-(2,3-dihydroxypropyl)-2-(2-(4-fluorophenyl)-1H-indol-3-yl)acetamide]"
19,> 1000,Cc1ccn(CC(=O)NCCc2c(-c3ccc(F)cc3)[nH]c3c(F)cc(F)cc23)n1 [Compound 378]
20,> 1000,O=C(NCCc1c(-c2ccc(F)cc2)[nH]c2c(F)cc(F)cc12)C1COC1 [Compound 413]
21,> 1000,O=C(Cc1nccs1)NCCc1c(-c2ccc(F)cc2)[nH]c2c(F)cc(F)cc12 [Compound 376]
22,< 250,C[C@H](O)[C@H](CO)NC(=O)OCCc1c(-c2ccc(F)cc2)[nH]c2c(F)cc(F)cc12 [Compound 442]
23,> 1000,CC1(CO)CCN1C(=O)OCCc1c(-c2ccc(F)cc2)[nH]c2c(F)cc(F)cc12 (racemic) [Compound 480]
24,> 1000,O=C1CC(C(=O)NCCc2c(-c3ccc(F)cc3)[nH]c3c(F)cc(F)cc23)CN1 (stereo not shown) [Compound 340]
25,> 1000,C[C@H](N)C(=O)NCCc1c(-c2ccc(F)cc2)[nH]c2c(F)cc(F)cc12 [Compound 363]
26,250 to 1000,CC(C)(O)CCNC(=O)OCCc1c(-c2ccc(F)cc2)[nH]c2c(F)cc(F)cc12 [Compound 458]
